Test results as given in publication PMC11189555, “Aryl amino acetamides prevent Plasmodium falciparum ring development via targeting the lipid-transfer protein PfSTART1” (Nature Communications, 2024).

Experiments:
[1] = molecular target: T1, recombinant PfSTART1(N330K) (I149-V394) (Plasmodium falciparum, UniProt Q8I298, N330K); assay: Isothermal titration calorimetry; type: binding; settings: for Differential Power DP_Y / ΔH NDH_Y: PfSTART(N330K), ITC replicate data
T1 construct: 8xHis tag (N); TEV protease cleavage site (N); made in house; host or cells: Sf21 insect cells (baculovirus)
T1 sequence (Q8I298 149-394 N330K): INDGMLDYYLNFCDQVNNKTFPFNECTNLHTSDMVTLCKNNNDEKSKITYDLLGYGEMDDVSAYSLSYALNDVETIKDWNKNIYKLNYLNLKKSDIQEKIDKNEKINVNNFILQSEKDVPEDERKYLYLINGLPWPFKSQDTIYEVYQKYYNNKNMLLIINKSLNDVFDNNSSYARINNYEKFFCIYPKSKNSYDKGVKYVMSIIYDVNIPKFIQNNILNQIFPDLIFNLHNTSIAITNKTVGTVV
Text: S. frugiperda codon optimised full-length N309K and N330K PfSTART1 mutants were first synthesised by Integrated DNA Technologies, and then I149 forward and V394 reverse primers utilised to clone the same I149-V394 construct boundaries into the modified pAcGP67a expression vector with a N-terminal GP67-signal sequence, 8xHis tag, and TEV protease cleavage site. As a result of the subcloning, SSG was removed upstream of the TEV cleavage site. Construct boundaries and incorporation of the N309K and N330K mutations was verified by Sanger sequencing. The PfSTART1 mutants were expressed and purified as per wild-type PfSTART1.
ITC experiments were performed on a MicroCal PEAQ-ITC calorimeter at 25 °C, with a stirring speed of 750 rpm and a reference power of 5 μcal/sec. 500 μM M-833 series inhibitor solutions were diluted to 10 μM in 50 mM NaPO4^-3 (pH 7.4), 150 mM NaCl with a final DMSO concentration of 2% (v/v) (cell sample). PfSTART1 protein was dialysed extensively against 50 mM NaPO4^-3 (pH 7.4), 150 mM NaCl, before diluting to 90 μM in the same buffer with 2% (v/v) DMSO (syringe sample). The first injection was 0.4 μL over a 0.8 s duration, and the remaining 19 injections were 2 μL of 4 s duration, with 150 s injection spacing. Data were collected and analysed using the PEAQ-ITC software (MicroCal) and fit by a single site binding model. A fitted offset (constant control heat) was also applied to the integrated heat.

[2] = system: signal recognition particle subunit (SRP19, PF3D7_1216300); assay: Solvent-PISA (solvent proteome profiling, DIA-MS); type: binding, Plasmodium falciparum; settings: 100 µM W-991 vs DMSO; 7-25% AEF
Procedure: (§1) The experiment was carried out in three biological replicates. Saponin-liberated mature parasite stages (30-42 hpi) were resuspended in PBS and lysed by 3x flash freeze/thawing using liquid N2, followed by 10 x mechanical sheering with a 29 G needle-syringe, and soluble protein isolation through ultracentrifugation (100,000 g; 20 min, 4 °C). Protein lysate was exposed to the 100 µM of W-991 or the vehicle control (DMSO) for 3 min and subsequently incubated with varying concentration of the solvent mixture ‘AEF’ (50% Acetone, 50% Ethanol, 0.1% Formate) to a final concentration of 7-25% (v/v) with 2% intervals, for 20 min at 37 °C at 800 rpm on a Thermomixer (Eppendorf). Denatured protein was pelleted through centrifugation (4 °C, 18,000 g, 20 min), and the soluble phase was recovered and pulled together in equivolume ratios into two samples; Gradient 1 ‘G1’: 7-15% EAF and Gradient 2 ‘G2’: 17-25% EAF, respectively.
(§2) Sample preparation for proteomic analysis was carried out using modified SP4 glass beads protocol. In brief, protein was reduced (20 mM TCEP, 100 mM TEAB) for 20 min at 55 °C and alkylated with 55 mM 2-Chloroacetamide for 30 min, followed by precipitation on beads in 80% ACN with a 6 min centrifugation at 21,000 g and 3 x wash with 80% Ethanol. Dried beads were subjected to sequential digestion with LysC (3 h, 1:50 ratio w/w) and trypsin (overnight, 1:50 ratio w/w), and the resulting digest was acidified with 1% TFA and desalted on T3 C18 stage tips (Affinisep) according to manufacturer’s specifications.
(§3) Peptide samples were analysed on Orbitrap Eclipse Tribrid mass spectrometer that is interfaced with the Neo Vanquish liquid chromatography system. Samples were loaded onto a C18 fused silica column (inner diameter 75 µm, OD 360 µm × 15 cm length, 1.6 µm C18 beads) packed into an emitter tip (IonOpticks) using pressure-controlled loading with a maximum pressure of 1,500 bar, that is interfaced to the mass spectrometer using Easy nLC source and electro sprayed directly into the mass spectrometer. Sample separation was carried out on a linear gradient 5% to 17% of solvent-B at 400 nL /min flow rate (solvent-B: 80% (by vol) acetonitrile) for 23 min and 17% to 25% solvent-B for 10 min, 25% to 34% for 11 min and 34% to 90% solvent-B for 1 min which was maintained at 90% B for 3 min and washed the column at 2% solvent-B for another 3 min comprising a total of 63 min run with a 45 min gradient in a data independent acquisition (DIA) mode MS scan parameters included a full scan using an orbitrap and 120,000 resolution, standard AGC target and maximum injection time of 30 ms. A second DIA experiment used the orbitrap at […] resolution, a precursor scan range of 200-1200 m/z with a normalized AGC target of 3000% and 45 variable isolation windows. Peptides were isolated and fragmented using stepped […] (HCD) at 24%, 28% and 32% normalized collision energy. Peptide identification was carried out in DIA-NN 1.8.1 using standard settings and an in silico spectral library generated from Uniprot P. falciparum (UP000001450) and human (UP000005640) reference proteomes. The peptide length range was set to 7-30 amino acids. […] Subsequently, the differential abundance analysis (moderated t-test, based on limma package[81]) of P. falciparum proteins was conducted in the R environment (R version 4.2.0; R Studio Version 2023.12.1 + 402) using precursor normalised MaxLFQ data for proteins detected with ≥2 peptides. […]

[3] = system: PF3D7_1463500 (START-domain protein); assay: Solvent-PISA (solvent proteome profiling, DIA-MS); type: binding, Plasmodium falciparum; settings: 100 µM W-991 vs DMSO; Fig S4E
Procedure: as §1, §2, §3

[4] = system: PF3D7_1351000 (START-domain protein); assay: Solvent-PISA (solvent proteome profiling, DIA-MS); type: binding, Plasmodium falciparum; settings: 100 µM W-991 vs DMSO; Fig S4E
Procedure: as §1, §2, §3

[5] = system: ring-infected erythrocyte surface antigen (RESA3, PF3D7_1149200); assay: Solvent-PISA (solvent proteome profiling, DIA-MS); type: binding, Plasmodium falciparum; settings: 100 µM W-991 vs DMSO; 7-25% AEF
Procedure: as §1, §2, §3

CC(C)(Nc1ccc(Cl)c(S(=O)(=O)N2CCOCC2)c1)C(=O)Nc1ccc(F)c(Cl)c1 [W-991]
interaction with PfSTART1(N330K) ([1]; ITC): no interaction | Differential Power DP_Y ([1]; DP_X 0.083333): -0.001242 | Differential Power DP_Y ([1]; DP_X 0.1): -0.0011 | ΔH NDH_Y ([1]; NDH_X 0.104703): -2.588 | ΔH NDH_Y ([1]; NDH_X 0.192876): -2.749 | soluble protein level in the presence of compound (stabilisation) [2]: drug-stabilised | abundance/stability of the protein on compound treatment [3]: not affected | abundance/stability of the protein on compound treatment [4]: not affected | soluble protein level in the presence of compound (stabilisation) [5]: drug-stabilised
